One block for each compound: values may come before it.
Legend:
[1] = molecular target: T1, hTLR7 (Homo sapiens, UniProt Q9NYK1); test: TLR7 reporter assay in HEK-Blue cells (SEAP, Quanti-Blue); type: cell-based; details: 24 hours incubation, SEAP absorbance at 620 nm
T1 construct: host or cells: HEK-Blue hTLR7 (HEK293-derived SEAP reporter cells)
T1 sequence (Q9NYK1 27-1049): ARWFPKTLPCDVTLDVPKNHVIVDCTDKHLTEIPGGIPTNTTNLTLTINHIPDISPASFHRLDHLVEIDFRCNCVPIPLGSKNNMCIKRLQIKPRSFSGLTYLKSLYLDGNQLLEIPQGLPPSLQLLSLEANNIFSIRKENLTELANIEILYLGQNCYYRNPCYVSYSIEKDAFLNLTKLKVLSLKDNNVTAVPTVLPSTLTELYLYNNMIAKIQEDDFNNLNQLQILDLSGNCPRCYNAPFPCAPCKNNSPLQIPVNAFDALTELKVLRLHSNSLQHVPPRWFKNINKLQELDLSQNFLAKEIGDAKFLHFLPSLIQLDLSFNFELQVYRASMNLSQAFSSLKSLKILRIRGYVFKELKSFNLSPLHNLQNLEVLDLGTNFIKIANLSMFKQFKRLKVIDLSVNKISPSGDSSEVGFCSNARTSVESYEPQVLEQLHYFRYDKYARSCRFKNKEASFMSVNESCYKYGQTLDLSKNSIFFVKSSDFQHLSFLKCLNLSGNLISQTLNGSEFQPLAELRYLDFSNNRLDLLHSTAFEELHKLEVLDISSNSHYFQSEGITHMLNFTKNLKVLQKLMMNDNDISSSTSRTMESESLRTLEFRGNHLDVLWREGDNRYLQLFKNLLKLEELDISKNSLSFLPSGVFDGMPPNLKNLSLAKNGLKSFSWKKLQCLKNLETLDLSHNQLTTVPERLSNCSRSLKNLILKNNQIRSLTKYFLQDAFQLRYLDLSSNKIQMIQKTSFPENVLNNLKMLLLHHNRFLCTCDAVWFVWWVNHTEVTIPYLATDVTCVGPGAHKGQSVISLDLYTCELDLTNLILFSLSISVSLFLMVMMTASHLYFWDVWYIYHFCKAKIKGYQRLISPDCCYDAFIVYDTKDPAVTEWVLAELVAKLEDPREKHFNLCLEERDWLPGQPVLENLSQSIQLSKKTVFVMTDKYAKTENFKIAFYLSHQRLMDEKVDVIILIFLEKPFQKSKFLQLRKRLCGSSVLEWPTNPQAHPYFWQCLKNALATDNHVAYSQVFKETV
Experimental: (§1) HEK-Blue™ TLR7 and TLR8 cell lines were obtained from InvivoGen (San Diego, CA, USA). HEK-Blue cells were cultured in DMEM medium hi glucose (Gibco-10569010) supplemented with 10% HI-FBS (Aus origin) (Gibco-10100-147), 1% penicillin/streptomycin (Gibco-15140-122-100 ml) as per manufacturer's recommendation. In addition, specific antibiotic mixtures were added to the culture. 100 μg/ml Zeocin (11006-33-0), 10 μg/ml Blasticidin (ant-bl-05), 50 μg/ml Normocin (ANT-NR-1-500 MG) for HEK-Blue™ hTLR7 and 100 μg/ml Zeocin, 30 μg/ml Blasticidin, 50 μg/ml Normocin for HEK-Blue™ hTLR8 cells (all from InvivoGen).
(§2) All the compounds were prepared in 100% DMSO (Sigma-D2650). The compounds were serially diluted in 100% DMSO (3 fold) up to 10 point dose response curve starting with 30 μM; final concentration of DMSO in the plate was 0.3%. Resiquimod and TL8-506 (InvivoGen-tlrl-t18506) were used as controls. 0.3% DMSO and 10 μM Resiquimod were used as min and max respectively, and % activation was calculated using following formula:
(§3) % Activation: {100−(max absorbance−absorbance)/(max absorbance−min absorbance)}×100.
(§4) For stimulation with TLR7/8 agonists, cells were resuspended in complete media and 40 μl of cell suspension (10,000 cells/well) was seeded on day 1 in 384 well assay plate (Thermo Scientific™ Nunc-164688) having pre-dispensed compounds with Echo Liquid handler. The plate was spun at 100 g for 1 min to settle down the cells and incubated at 37° C. with 5% CO2 for 24 hours. For measuring production of SEAP after 24 hrs of incubation, 10 μl of Quanti-Blue™ solution (InvivoGen rep-qbs2) prepared according to manufacturer's instructions was added in dark to the assay plate and incubated at 37° C. with 5% CO2 for 30 min. Post incubation, the absorbance was measured at 620 nm in Tecan spark (Spark control Magellan). EC50 were determined using Graph Pad Prism Statistical software (Version 7.05), with individual data points represent the absorbance values of duplicates.

[2] = molecular target: T2, hTLR8 (Homo sapiens, UniProt Q9NR97); test: TLR8 reporter assay in HEK-Blue cells (SEAP, Quanti-Blue); type: cell-based; details: 24 hours incubation, SEAP absorbance at 620 nm
T2 construct: host or cells: HEK-Blue hTLR8 (HEK293-derived SEAP reporter cells)
T2 sequence (Q9NR97 27-1041): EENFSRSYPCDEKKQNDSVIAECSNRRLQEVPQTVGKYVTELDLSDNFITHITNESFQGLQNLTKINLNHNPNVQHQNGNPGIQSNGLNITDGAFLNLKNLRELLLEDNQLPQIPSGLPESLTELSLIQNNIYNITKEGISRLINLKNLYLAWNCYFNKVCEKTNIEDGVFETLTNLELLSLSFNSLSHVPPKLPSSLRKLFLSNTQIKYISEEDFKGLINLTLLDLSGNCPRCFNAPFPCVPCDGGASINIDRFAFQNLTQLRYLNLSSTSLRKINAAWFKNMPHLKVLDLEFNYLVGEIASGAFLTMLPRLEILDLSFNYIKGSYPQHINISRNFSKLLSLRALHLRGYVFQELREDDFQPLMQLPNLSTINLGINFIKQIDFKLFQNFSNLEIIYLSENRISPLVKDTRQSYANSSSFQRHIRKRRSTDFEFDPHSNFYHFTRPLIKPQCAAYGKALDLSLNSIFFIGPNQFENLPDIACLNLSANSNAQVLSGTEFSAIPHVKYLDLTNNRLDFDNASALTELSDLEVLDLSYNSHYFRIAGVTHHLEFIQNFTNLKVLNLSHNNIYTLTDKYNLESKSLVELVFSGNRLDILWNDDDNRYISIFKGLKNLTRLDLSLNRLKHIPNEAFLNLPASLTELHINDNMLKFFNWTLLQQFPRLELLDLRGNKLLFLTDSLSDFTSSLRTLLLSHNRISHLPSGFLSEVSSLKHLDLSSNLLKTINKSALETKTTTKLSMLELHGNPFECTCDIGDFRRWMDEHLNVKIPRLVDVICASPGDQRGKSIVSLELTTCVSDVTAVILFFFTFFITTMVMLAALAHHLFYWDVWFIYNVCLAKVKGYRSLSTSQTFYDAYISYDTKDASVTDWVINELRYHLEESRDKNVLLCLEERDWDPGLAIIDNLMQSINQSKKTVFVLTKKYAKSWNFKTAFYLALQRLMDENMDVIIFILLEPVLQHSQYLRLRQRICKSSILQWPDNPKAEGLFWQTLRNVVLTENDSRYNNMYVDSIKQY
Experimental: as §1, §2, §3, §4

Compound: CCOCc1nc2c(N)nc3ccccc3c2n1CC(C)(C)OCCN1CCN(C)CC1 [Example 1]
EC50 [1]: < 10 nM
EC50 [2]: 1000 to 10000 nM

Compound: CCOCc1nc2c(N)nc3ccccc3c2n1CC(C)(C)OCCNC(=O)CO [Example 20]
EC50 [1]: > 10000 nM
EC50 [2]: > 10000 nM

Compound: CCOCc1nc2c(N)nc3ccccc3c2n1CC(C)(C)OCCCC(=O)N1CCN(C)CC1 [Example 15]
EC50 [1]: 10 to 100 nM
EC50 [2]: 1000 to 10000 nM

Compound: CCOCc1nc2c(N)nc3ccccc3c2n1CC(C)(C)OCCCCN1CCN(CCO)CC1 [Example 12]
EC50 [1]: 10 to 100 nM
EC50 [2]: 1000 to 10000 nM

Compound: CCOCc1nc2c(N)nc3ccccc3c2n1CC(C)(C)OC(=O)CN1CCN(C)CC1 [Example 17]
EC50 [1]: 100 to 1000 nM
EC50 [2]: 100 to 1000 nM

Compound: CCOCc1nc2c(N)nc3ccccc3c2n1CC(C)(C)OCCCCCCN1CCN(C)CC1 [Example 5]
EC50 [1]: < 10 nM
EC50 [2]: 100 to 1000 nM

Compound: CCOCc1nc2c(N)nc3ccccc3c2n1CC(C)(C)OCCCCO [Example 6]
EC50 [1]: 10 to 100 nM
EC50 [2]: 1000 to 10000 nM

Compound: CCOCc1nc2c(N)nc3ccccc3c2n1CC(C)(C)OCCNC(=O)CN1CCN(C)CC1 [Example 16]
EC50 [1]: 100 to 1000 nM
EC50 [2]: 1000 to 10000 nM

The remaining lines, values ahead:

EC50 [1]: 1000 to 10000 nM
EC50 [2]: > 10000 nM
Compound: CCOCc1nc2c(N)nc3ccccc3c2n1CC(C)(C)OCCNC(=O)CS(=O)(=O)O [Example 25]

EC50 [1]: 100 to 1000 nM
EC50 [2]: > 10000 nM
Compound: CCOCc1nc2c(N)nc3ccccc3c2n1CC(C)(C)OCCNC(=O)C(C)(C)O [Example 21]

EC50 [1]: 100 to 1000 nM
EC50 [2]: 100 to 1000 nM
Compound: CCOCc1nc2c(N)nc3ccccc3c2n1CC(C)(C)OCCNC(=O)CS(C)(=O)=O [Example 24]

EC50 [1]: 100 to 1000 nM
EC50 [2]: > 10000 nM
Compound: CCOCc1nc2c(N)nc3ccccc3c2n1CC(C)(C)OCCNC(=O)CSC [Example 23]

EC50 [1]: 100 to 1000 nM
EC50 [2]: > 10000 nM
Compound: CCOCc1nc2c(N)nc3ccccc3c2n1CC(C)(C)OCCNC(=O)CC(=O)OC [Example 22]

EC50 [1]: 100 to 1000 nM
EC50 [2]: 1000 to 10000 nM
Compound: CCOCc1nc2c(N)nc3ccccc3c2n1CC(C)(C)OCCCCN1CCN(CCSC)CC1 [Example 26]

— patent publication US20260193250A1, “TOLL-LIKE RECEPTOR 7 AGONISTS AS IMMUNE-STIMULATORS TO ELICIT THE INNATE ANTITUMOR IMMUNITY” (Merck Patent GmbH, priority 2022, published 2026)
